The structures appear in SMILES notation.

Common to all, as to type: in vivo, Sprague-Dawley rats
Assay [1] has as its system electrocutaneous stimulation-induced facial pain rodent model. Kind of assay: ES-induced facial pain model, mechanical allodynia (Von Frey), prophylactic and acute treatment. Here is the method:
Mechanical pain thresholds were assessed by measuring each rat's facial withdrawal threshold (g) in response to von Frey monofilaments (BioSeb). Starting monofilament: 3.84 (0.6 g), 50% facial withdrawal threshold was interpolated using the up-down method (Chaplan S R et al., 1994). Cutoff monofilament was 4.56 (4 g). Unless stated otherwise, the same materials, methods, and provisions of Example 1 were applied to Example 2. The required quantity of the compound is weighed and dissolved in 100% DMSO in a volume amounting to 5% of the total volume while placed on a stirrer. The weight of the compounds refers to the free base weights. Once the solution becomes clear/transparent, the remaining volume of the vehicle is added (30% HPBCD prepared in MQ water) to final concentrations of 0.03, 0.1, and 0.3 mg/ml for Compound 1. The solutions are kept on a stirrer before- and during administration of the compounds to the animals. The experimenter assessing the behavioral responses to drug administration is blinded to the drug treatment to the animals. Each treatment group is coded according the scheme below: • A. Vehicle (5% DMSO+30% HPBCD): 10 ml/kg • B. Compound 1: 0.3 mg/kg • C. Compound 1: 1 mg/kg • D. Compound 1: 3 mg/kg • F. Compound 1: 3 mg/kg—acute Second baseline measurement was carried out similarly to day 1, For each animal, the average of the two baseline nociceptive measurements was calculated within each pain modality (mechanical, heat- and cold pain), and used as baseline (“Baseline” point on figures). Then all rats in the above respective group (A-D) are given treated as mentioned. Group F received vehicle treatment. Treatment is continued once daily to each group same as Day 2 All rats were treated with respective treatment as per day 3-7. After 1 hr of treatment, each rat was subjected to 1 hr of electrocutaneous stimulation at depilated cheek (0.4 mA intensity, 10 ms duration, 1 s inter-pulse interval). Similar to day 1- and 2, all rats were acclimatized to test equipment followed by measurements of ES-induced facial mechanical- heat- and cold allodynia (“0” time point on figures). After measurement of hypersensitivity threshold, rats from group A-D received the vehicle and three doses of Compound 1 as mentioned above while group F received single acute dose of 3 mg/kg of Compound 1. Treatment effects on pain thresholds were evaluated 2- and 4 hours after administration by assessing mechanical- (Von Frey) and thermal (heat and cold) withdrawal threshold.

The test system is the same in assay [2]. The assay can be described thus: ES-induced facial pain model, acute treatment, overall conclusion (mechanical and thermal tests). Particulars: 1, 3 and 10 mg/kg po. The text has this:
The electrocutaneous stimulation-induced facial pain rodent model is a reproducible orofacial pain model in which depilated cheek area of rats are repeatedly subjected to electrical stimulation. Repeated electrical stimulation at low intensities produces craniofacial pain that mimics the behavioral characteristics of TN such as development of mechanical and thermal allodynia at cheeks despite no visible edema, swelling or excessive injury and tissue damage. Male wild type, Sprague-Dawley rats (Charles River Laboratories) born in-house at […] Research Laboratory between May 24, 2020 to May 28, 2020. […] Compound 1, vehicle and Carbamazepine was administered perorally in doses of 1, 3, and 10 mg/kg (Compound 1) or 30 mg/kg (carbamazepine) and drug effects on pain thresholds were evaluated 2- and 4 hours after drug administration by assessment of mechanical- (von Frey) and thermal hypersensitivity (heat- and cold stimulation respectively). Decrease in ES-induced pain threshold was evaluated 22 hours following electrical stimulation of the depilated left cheek area (between the eye and ear ridge, this is a receptive field of trigeminal nerve) of each rat and was manifested as facial withdrawal following application of Von Frey filaments for mechanical allodynia and a heat lamp and acetone test for thermal hyperalgesia and allodynia respectively. […]

Assay [3] shares this test system. Kind of assay: ES-induced facial pain model, prophylactic treatment, overall conclusion (mechanical and thermal tests). Particulars: po. The procedure:
Unless stated otherwise, the same materials, methods, and provisions of Example 1 were applied to Example 2. The experimenter assessing the behavioral responses to drug administration is blinded to the drug treatment to the animals. Each treatment group is coded according the scheme below: • A. Vehicle (5% DMSO+30% HPBCD): 10 ml/kg • B. Compound 1: 0.3 mg/kg • C. Compound 1: 1 mg/kg • D. Compound 1: 3 mg/kg • F. Compound 1: 3 mg/kg—acute Second baseline measurement was carried out similarly to day 1, For each animal, the average of the two baseline nociceptive measurements was calculated within each pain modality (mechanical, heat- and cold pain), and used as baseline (“Baseline” point on figures). Then all rats in the above respective group (A-D) are given treated as mentioned. Group F received vehicle treatment. Treatment is continued once daily to each group same as Day 2 All rats were treated with respective treatment as per day 3-7. After 1 hr of treatment, each rat was subjected to 1 hr of electrocutaneous stimulation at depilated cheek (0.4 mA intensity, 10 ms duration, 1 s inter-pulse interval). […] Treatment effects on pain thresholds were evaluated 2- and 4 hours after administration by assessing mechanical- (Von Frey) and thermal (heat and cold) withdrawal threshold.

In the case of `COc1ncc(-c2cccc(-n3cnc4cc(C(C)(C)O)cnc43)c2)c(OC)n1` [Compound 1, 2-(3-(3-(2,4-dimethoxypyrimidin-5-yl)phenyl)-3H-imidazo[4,5-b]pyridin-6-yl)propan-2-ol], the “effect size on mechanical allodynia, acute treatment compared to prophylactic treated animals” value in assay [1] (acute 3 mg/kg po) is listed as “smaller”. The “effect on established mechanical allodynia vs vehicle” value in assay [1] (acute 3 mg/kg po on day 9, p<0.01 post 2 hrs, p<0.001 post 4 hrs) is given as “reversed the mechanical allodynia”; in assay [1] (prophylactic 0.3 mg/kg po plus additional dose on day 9, p>0.05 post 2 hrs, p<0.01 post 4 hrs) it was “reversed the mechanical allodynia dose dependently”; in assay [1] (prophylactic 1 mg/kg po plus additional dose on day 9, p<0.01 post 2 hrs, p<0.0001 post 4 hrs) it was “reversed the mechanical allodynia dose dependently”; in assay [1] (prophylactic 3 mg/kg po plus additional dose on day 9, p<0.0001 post 2 hrs and post 4 hrs), “reversed the mechanical allodynia dose dependently”. The “development of mechanical allodynia vs vehicle” value in assay [1] (prophylactic 3 mg/kg po once daily for 7 days, day 9 at 0 time, p<0.001 vs vehicle) is given as “significantly reduced the development of allodynia”. The “analgesic effects (overall)” value in assay [2] is listed as “significant analgesic effects in a dose dependent manner”. Besides, in assay [3] (once daily dose of 3 mg/kg, prophylactic), the “analgesic effect compared with 10 mg/kg acute dose of Compound 1 or 30 mg/kg of Carbamazepine” value is on record as “same analgesic effect”. In assay [3] (prophylactic treatment for 7 days, once daily dose), the “development of ES-induced sensitization (hypersensitivity to mechanical and thermal stimulus)” value is given as “significantly reduced the development of ES-induced sensitization of the trigeminal sensory system”.

(Values after patent US20240197733A1, “A GABA RECEPTOR MODULATOR FOR USE IN THE TREATMENT OF PAIN” (SANIONA A/S, priority 2021, published 2024).)
